Measurements from patent EP0204215B1, “2-[(1H-benzimidazol-2-ylsulfinyl)methyl]-benzenamines” (G.D. Searle & Co., priority 1985, dated 1986).

Assays:
[1] = target: T1, (H⁺+K⁺)-ATPase (Canis lupus familiaris, UniProt P50996); experiment: Inhibition of (H⁺+K⁺)-ATPase from canine gastric mucosa (release of inorganic phosphate); type: biochemical; details: microsomes from canine gastric mucosa, pH 6.0, preincubated 30 min at 37°; read-out: (H⁺+K⁺)-ATPase IC₅₀
T1 construct: The microsomes retained at the 15%-30% sucrose interface, after centrifugation at 250,000xg for sixty minutes, were used as the source of (H⁺+K⁺)-ATPase; from tissue; host or cells: gastric glandular mucosa of mongrel dogs (microsomal fraction, sucrose step gradient, lyophilized)
Experimental: Mongrel dogs weighing 15 to 25 kilograms were fasted for twenty-four hours, with water provided ad libitum. The animals were anesthetized with pentobarbital and the stomachs were removed. Subsequent tissue manipulations and subcellular fractionations were performed at 0 to 4°C. After the stomachs were cut open and rinsed with tap water, the antral and cardiac regions were removed and the remaining tissue was rinsed three times in saline. The glandular mucosa was removed mechanically, chopped finely in a medium containing 10 mM Tris hydrochloride (pH 7.4) and 250 mM sucrose, and homogenized. The homogenate was centrifuged at 20,000xg for twenty minutes and the pellet discarded. The supernatant was then centrifuged at 150,000xg for ninety minutes and the supernatant discarded. The pellet was resuspended in the Tris-HCl/sucrose medium by homogenization. Part (2 ml) of the resultant microsomal suspension was layered onto a step gradient consisting of 9 ml of 15% sucrose above 12 ml of 30% sucrose, each sucrose solution being buffered with 10 mM Tris hydrochloride (pH 7.4) containing 0.01% sodium aside. The microsomes retained at the 15%-30% sucrose interface, after centrifugation at 250,000xg for sixty minutes, were used as the source of (H⁺+K⁺)-ATPase. Microsomal preparations were lyophilized, a process that assured potassium ion permiability, and stored at -10° until used.
(H⁺+K⁺)-ATPase activity for each test compound was determined, in duplicate, by measuring the release of inorganic phosphate, which was assayed according to the method of J. ChandraRajan and L. Klein. Anal. Biochem., 72, 407-412 (1976). The (H⁺+K⁺)-ATPase assay medium consisted of 20 mM Mes-Tris (pH 6.0), 5 mM magnesium chloride, 25 mM sucrose, and 4mM Tris-ATP with or without 20 mM potassium chloride in a total volume of 2 ml. Microsomal suspensions (20 to 60 mcl, containing about 25 mcg protein) were added to the assay medium, without Tris-ATP, and then preincubated with a test compound for thirty minutes at 37°. The assay was initiated by adding Tris-ATP and the mixture was incubated another thirty minutes at 37°. A 200-mcl aliquot of the assay mixture was then added to 1.4 ml of a solution consisting of 0.1 M sodium acetate (pH 4.0) and 10% sodium dodecylsulfate, followed by the addition of 200 mcl each of 1% ammonium molybdate and 1% ascorbic acid. At least fifteen minutes later, the optical absorbance at 870 nm (which was proportional to inorganic phosphate concentration up to 100 nmoles per tube, as determined by a standard curve) was obtained. Enzyme activity was linear with incubation time.
(H⁺+K⁺)-ATPase activity is represented by the difference between the measured activities in the presence of potassium ion (K⁺-stimulated) and in the absence of potassium ion (basal). The concentration of a test compound required to inhibit 50% of the (H⁺+K⁺)-ATPase activity (i.e., the IC₅₀) was determined at least in duplicate using linear regression analysis of results obtained for three different compound concentrations ranging from 0.1 mcM to 0.2 mM.

[2] = test system: Gastric Acid Secretion; experiment: Inhibition of gastric acid secretion in gastric fistula beagle dogs (histamine-stimulated); type: in vivo; details: four-hour histamine stimulation; for inhibition in vivo at 3 mg/kg: Canis lupus familiaris, 4 h; for Gastric-Fistula Beagle % Inhibition: 3 mg/kg dose
Excerpt: Adult female beagle dogs weighing 6 to 11 kilograms obtained from Laboratory Research Enterprises (Kalamazoo, Mich.) or from Hazelton Research Animals (Cumberland, Va.) were surgically implanted with a simple Thomas-type gastric cannula. After recovery from surgery, the dogs were trained to stand quietly, fully conscious, in Pavlov-type dog restraining slings and were acclimated to intravenous infusion of histamine dihydrochloride. During the course of these studies, no dog was used more than once a week. All dogs were deprived of food, but not water, for 18 hours prior to each assay. Each dog was initially infused with 0.15 M sodium chloride solution at a constant rate of […]. The volume of gastric secretions, collected in plastic bottles affixed to the cannula, were measured to the nearest 0.1 ml at 30 minute intervals. One of the following protocols was followed, depending on the route chosen for administration of test compound.
Intravenous dosing: Following a 30-minute basal secretion period, test compounds were administered intravenously (i.v.). At the end of an additional 30 minute period, the saline infusion was replaced with histamine dihydrochloride in saline administered at a rate 15 mcg per kilogram of body weight per hour. Histamine stimulation was maintained for a maximum of four hours during which time gastric secretions were collected every 30 minutes. The pH and titratable acidity were determined for samples from each collection period.
Intragastric dosing: Following a 30-minute basal secretion period, the collection bottles were removed, dosing plugs were inserted, and test compounds were administered intragastrically (i.g.). At the end of a 30-minute drug absorption period, the stomachs were emptied, the collection bottles were reattached, and collections were resumed at 30-minute intervals. Simultaneously, the saline infusion was replaced with a continuous intravenous infusion of histamine dihydrochloride in saline administered for four hours at a rate 15 mcg per kilogram of body weight per hour.
Intraduodenal dosing: Dogs were also equipped with duodenal cannulas for intraduodenal (i.d.) administration of test compounds. Dosing was otherwise performed as described for intragastric dosing.
Data from each protocol were analyzed for three gastric sample variables: volume of gastric juice, acid concentration, and total acid output. Percent inhibition for each four-hour experimental period was determined for each parameter by comparison with 3 to 4 controls in which only food was given. Estimates of ED₅₀'s were determined from dose response curves.

[3] = test system: Gastric Acid Secretion; experiment: Inhibition of gastric acid secretion in meal-stimulated Pavlov pouch dog; type: in vivo, beagle dogs; details: four-hour period
Experimental: Adult female beagle dogs weighing 6 to 10 kilograms were obtained from Laboratory Research Enterprises (Kalamazoo, Mich.) or from Hazelton Research Animals (Cumberland, Va.). Surgical implantation of a Thomas-type gastric cannula into an innervated Pavlov pouch of each dog was performed by the method reported by L. Burrows et al., J. Surgical Res., 4, 147-150 (1964). After recovery from surgery, the dogs were trained to stand quietly, fully conscious, in Pavlov-type dog restraining slings. All dogs were deprived of food, but not water, for 24 hours prior to each assay. Basal acid secretion was measured by collecting from the cannulas for 30 minutes before dosing with a test compound. Solutions of the test compounds in iso-osmotic phosphate buffer (pH 7.4) were given either intravenously or directly into the Pavlov pouch. After 30 minutes the pouch was drained. The dogs were then fed 320 grams of dog food and gastric acid secretions were collected each half hour for four hours. Controls were determined in the same way except that only food (i.e., no test compound) was administered.
Data were analyzed for three different variables: volume of gastric juice, acid concentration, and total acid output. Percent inhibition for the four-hour experimental period was determined for each parameter by comparison with 3 to 4 controls. Estimates of ED₅₀ were determined from dose response curves.

T1 sequence (P50996 whole entry): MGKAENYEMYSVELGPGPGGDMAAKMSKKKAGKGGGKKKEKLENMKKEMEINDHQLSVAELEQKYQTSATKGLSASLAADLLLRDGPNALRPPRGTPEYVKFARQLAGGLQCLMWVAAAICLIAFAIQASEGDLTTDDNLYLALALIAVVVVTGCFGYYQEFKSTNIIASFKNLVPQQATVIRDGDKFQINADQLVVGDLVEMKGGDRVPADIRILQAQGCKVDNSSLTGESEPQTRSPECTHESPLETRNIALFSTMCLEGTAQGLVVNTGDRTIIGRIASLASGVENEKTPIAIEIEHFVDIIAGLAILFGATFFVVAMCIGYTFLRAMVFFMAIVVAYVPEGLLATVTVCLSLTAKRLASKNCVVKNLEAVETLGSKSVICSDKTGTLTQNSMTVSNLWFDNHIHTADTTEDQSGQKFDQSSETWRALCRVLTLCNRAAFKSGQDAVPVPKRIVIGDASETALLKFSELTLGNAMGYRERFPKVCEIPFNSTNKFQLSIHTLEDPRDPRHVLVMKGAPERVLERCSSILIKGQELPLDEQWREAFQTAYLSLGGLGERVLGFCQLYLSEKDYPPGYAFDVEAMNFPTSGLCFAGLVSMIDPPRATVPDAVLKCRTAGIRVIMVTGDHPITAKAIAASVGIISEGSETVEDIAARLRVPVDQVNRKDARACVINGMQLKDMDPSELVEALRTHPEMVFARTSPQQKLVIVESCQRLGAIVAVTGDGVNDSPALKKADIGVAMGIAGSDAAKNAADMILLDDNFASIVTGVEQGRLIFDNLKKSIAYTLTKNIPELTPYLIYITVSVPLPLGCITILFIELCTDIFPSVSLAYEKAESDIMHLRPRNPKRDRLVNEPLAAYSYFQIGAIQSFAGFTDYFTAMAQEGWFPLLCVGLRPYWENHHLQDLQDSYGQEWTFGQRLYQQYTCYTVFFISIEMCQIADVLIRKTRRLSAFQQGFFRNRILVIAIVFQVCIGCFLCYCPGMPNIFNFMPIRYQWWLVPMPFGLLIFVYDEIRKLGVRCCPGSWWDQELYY
T1 sequence (P33704 whole entry partner): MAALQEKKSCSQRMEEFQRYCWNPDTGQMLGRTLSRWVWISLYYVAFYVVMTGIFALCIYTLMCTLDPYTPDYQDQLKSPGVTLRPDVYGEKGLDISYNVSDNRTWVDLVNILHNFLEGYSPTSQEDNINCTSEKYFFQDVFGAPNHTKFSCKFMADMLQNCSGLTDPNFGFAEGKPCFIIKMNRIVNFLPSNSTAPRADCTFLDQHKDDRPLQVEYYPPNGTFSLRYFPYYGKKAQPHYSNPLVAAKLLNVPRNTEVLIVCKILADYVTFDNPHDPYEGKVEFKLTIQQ

Compound	IC50 [1] [µM]	Gastric-Fistula Beagle % Inhibition ([2]; i.d.) [i.d. %]	also measured
Cc1cc(N)c(C[S+]([O-])c2nc3ccccc3[nH]2)c(C)c1C (stereo not drawn) [Example 30, 2-[(1H-benzimidazol-2-ylsulfinyl)methyl]-3,4,5-trimethylbenzenamine hemihydrate]	1.5	–	–
COc1ccc2[nH]c(SCc3cccc(C)c3N)nc2c1 [Example 18, 2-[[(5-methoxy-1H-benzimidazol-2-yl)thio]methyl]-6-methylbenzenamine]	4.2	–	inhibition in vivo at 3 mg/kg ([2]; intraduodenal, i.d.): 66%; inhibition in vivo at 3 mg/kg ([2]; iv): 91%; inhibition in vivo at 3 mg/kg ([2]; po, i.g.): 43%; Pavlov-Pouch Dog % Inhibition ([3]; 3 mg/kg): 79 (3mg/kg) %
2-[[[(5-(trifluoromethyl)-1H-benzimidazol-2-yl]thio]methyl]benzenamine [Example 20]	5.4	72	Gastric-Fistula Beagle % Inhibition ([2]; i.v.): 96 i.v. %
COc1ccc2[nH]c([S+]([O-])Cc3ccccc3N)nc2c1 (stereo not drawn) [Example 5, 2-[[(5-methoxy-1H-benzimidazol-2-yl)sulfinyl]methyl]benzenamine]	–	–	Pavlov-Pouch Dog % Inhibition ([3]; 3 mg/kg): 19 (3 mg/kg) %; Pavlov-Pouch Dog % Inhibition ([3]; 10 mg/kg): 54 (10 mg/kg) %
2-[[[(5-(trifluoromethy)1-1H-benzimidazol-2-yl]thio]methyl]-3,6-dimethylbenzenamine [Example 28]	5.3	–	–
CCOc1ccc2[nH]c(SCc3cc(C)ccc3N)nc2c1 [Example 26, 2-[[(5-ethoxy-1H-benzimidazol-2-yl)thio]-methyl]-4-methylbenzenamine]	0.82	–	–
Cc1ccc(CSc2nc3ccccc3[nH]2)c(N)c1C [Example 22, 2-[(1H-benzimidazol-2-ylthio)methyl]-5,6-dimethylbenzenamine]	4.4	–	inhibition in vivo at 3 mg/kg ([2]; intraduodenal, i.d.): 37%
COc1ccc2[nH]c([S+]([O-])Cc3c(N)cc(C)c(OC)c3C)nc2c1 (stereo not drawn) [Example 31, 2-[[(5-methoxy-1H-benzimidazol-2-yl)sulfinyl]methyl]-4-methoxy-3,5-dimethylbenzenamine]	16	31	–
Nc1ccccc1C[S+]([O-])c1nc2ccccc2[nH]1 (stereo not drawn) [Example 3, 2-[(1H-benzimidazol-2-ylsulfinyl)methyl] benzenamine hemihydrate]	–	53	Pavlov-Pouch Dog % Inhibition ([3]; 1 mg/kg): 20 (1 mg/kg) %; Pavlov-Pouch Dog % Inhibition ([3]; 10 mg/kg): 87 (10 mg/kg) %
Cc1cccc(C[S+]([O-])c2nc3ccccc3[nH]2)c1N (stereo not drawn) [Example 13, 2-[(1H-benzimidazol-2-ylsulfinyl)methyl]-6-methylbenzenamine]	–	44	Pavlov-Pouch Dog % Inhibition ([3]; 3 mg/kg): 43 (3 mg/kg) %
COc1ccc2[nH]c(SCc3cc(C)ccc3N)nc2c1 [Example 16, 2-[[(5-methoxy-1H-benzimidazol-2-yl)thio]methyl]-4-methylbenzenamine]	0.85	–	–
Cc1ccc(N)c(C[S+]([O-])c2nc3ccccc3[nH]2)c1 (stereo not drawn) [Example 11, 2-[(1H-benzimidazol-2-ylsulfinyl)methyl]-4-methylbenzenamine]	–	–	Gastric-Fistula Beagle % Inhibition ([2]; i.v.): 67 i.v. %
